Assays:
Type in all cases: cell-based, human
[1] = tested on: CCM1^-/- BOECs in co-culture with CCM1^+/- BOECs; experiment: Co-culture of patient-specific BOECs, frequency of second knockout allele; conditions: 10 µM (Fig. 23)
Experimental: (§1) Clonally expanded CI-huVEC lines with biallelic loss-of-function variants in the first coding exon of CCM3 have been described before or were established according to a published CRISPR/Cas9 genome editing protocol. Blood outgrowth endothelial cells (BOECs) were cultured in EGM-2 medium (Lonza, Basel, Switzerland) supplemented with 18 % FCS. With the approval of the local ethics committee (University Medicine Greifswald, Germany; No.: BB 047/14a), CCM1^-/- BOECs had been established previously from CCM1^+/- BOECs of a CCM1 mutation carrier with CRISPR/Cas9 genome editing. Mutant and wild-type ECs were co-cultured in 96-well plates under standard culture conditions with the indicated mutant-to-wild-type ratios. 2500 cells were seeded per well.
The fraction of mutant alleles in co-culture were analysed by amplicon deep sequencing or T7EI cleavage assay. In brief, genomic target regions were first amplified by PCR. For T7E1 cleavage assays, heteroduplexes were formed and digested with T7EI enzyme (New England Biolabs, Frankfurt am Main, Germany). Cleavage products were visualised by gel electrophoresis and analysed with the Image Lab software (v6.0, Bio-Rad, Hercules, CA, USA). For NGS analysis, sequencing adapters and individual barcodes were introduced in a second round of PCR [7]. […] The data were analysed with the SeqNext software (JSI Medical Systems, Ettenheim, Germany).

CI-huVECs = experiment: Bright-field microscopy of EC morphology after compound treatment; conditions: library screening follow-up (Fig. 14)
CCM3^-/- CI-huVECs [2] = experiment: Targeted RNA sequencing (apoptosis and cell death panel); conditions: 10 µM, 24 h
Description: RNA was extracted using the PeqGold TriFast reagent (Peqlab-VWR, Radnor, PA, USA) and purified using the Direct-zol RNA MiniPrep Plus Kit (Zymo Research, Irvine, CA, USA). A Qubit 4.0 (Thermo Fisher Scientific) and the Qubit RNA BR Assay Kit (Q10211, Thermo Fisher Scientific) were used to measure RNA concentrations. RNA sample integrity was controlled on a 2100 Bioanalyzer using the RNA 6000 Nano Kit (Agilent, Santa Clara, CA, USA). A QIAseq Targeted Human Apoptosis and Cell Death RNA Panel (RHS-002Z, QIAGEN, Hilden, Germany) was used to prepare RNA sequencing libraries according to the manufacturer's instructions. After quality control with the High Sensitivity DNA Kit on a 2100 Bioanalyzer instrument (Agilent), the pooled libraries were sequenced on a MiSeq (Illumina) with 1x151 cycles. Differential gene expression of RNA sequencing data was carried out using the QIAseq Targeted RNA Primary and Secondary Analysis Tool (QIAGEN).

CCM3^+/+ CI-huVECs = experiment: CyQuant cell proliferation assay combined with mutant allele frequencies, co-culture (wild-type cells); conditions: six days
Experimental: as §1, with “well. The proliferation rate of mutant and wild-type ECs in monoculture was quantified with the CyQuant® Cell Proliferation Assay Kit (C7026, Thermo Fisher Scientific). To discriminate the proliferation rates of CCM3^+/+ and CCM3^-/- CI-huVEC in co-culture, the CyQuant® Cell Proliferation Assay results were combined with mutant allele frequencies that had been determined by amplicon deep sequencing. To analyse their sensitivity to apoptosis, mutant and wild-type ECs were seeded in 96-well plates with 15.000 cells per well, and treated with staurosporine ([…], Sigma-Aldrich, St. Louis, MO, USA) 24 h later. […]” for “well.”

[3] = tested on: CCM3^-/- CI-huVECs in co-culture with CCM3^+/+ CI-huVECs; experiment: Spike-in co-culture assay / apoptosis compound library screening: CCM3 knockout allele frequency by amplicon deep sequencing
Experimental: as §1
An apoptosis compound library with 189 small molecules that target apoptosis, survival and proliferation was used in a high throughput screening approach (HY-L003[HY-LD-000001651]; MedChem Express, Monmouth Junction, NJ, USA). Co-cultures were treated with 10 µM of each substrate for six days. Compounds were added 5 h and 3 days after cell seeding.
NSC59984 (IUPAC: (2E)-1-(4-Methyl-1-piperazinyl)-3-(5-nitro-2-furyl)-2-propen-1-one, HY19726, MedChem Express), was used for individual experiments with the indicated concentrations.
The fraction of mutant alleles in co-culture were analysed by amplicon deep sequencing or T7EI cleavage assay. In brief, genomic target regions were first amplified by PCR. For T7E1 cleavage assays, heteroduplexes were formed and digested with T7EI enzyme (New England Biolabs, Frankfurt am Main, Germany). Cleavage products were visualised by gel electrophoresis and analysed with the Image Lab software (v6.0, Bio-Rad, Hercules, CA, USA). For NGS analysis, sequencing adapters and individual barcodes were introduced in a second round of PCR [7]. Sequencing libraries were pooled and sequenced on a MiSeq instrument with 2 x 150 cycles (Illumina, San Diego, CA, USA). The data were analysed with the SeqNext software (JSI Medical Systems, Ettenheim, Germany).

CCM3^-/- CI-huVECs [4] = experiment: Cell cycle analysis by flow cytometry; conditions: 10 µM, 72 h; DMSO 75.9 %
Experimental: Plating efficiencies were determined as follows: CCM3^+/+ and CCM3^-/- CI-huVEC were seeded in 6-well-plates with either 100 or 250 cells per well. Colonies fixed and stained after eight days with a solution of glutaraldehyde (G6257, Sigma-Aldrich, final concentration 6 %) and crystal violet (HT901, Sigma-Aldrich, final concentration 0.5 %). The plating efficiency was defined as the ratio between the number of colonies and the number of plated cells. A cell cycle analysis kit (MAK344, Sigma-Aldrich) was used to determine cell cycle profiles by flowcytometry (LSRII Flow Cytometer System, BD Biosciences, San Jose, CA, USA). One day after plating, cells were synchronised for 24 h with ECGM supplemented with 0.1 % FCS. Prior to FACS analysis, cells were incubated with ECGM + 10 % FCS for another 24 h or treated with 10 µM NSC59984 for 72 h. Data were analysed with FlowJo v10.7.1 (BD Biosciences).

For CN1CCN(C(=O)/C=C/c2ccc([N+](=O)[O-])o2)CC1 [NSC59984, (E)-1-(4-methylpiperazin-1-yl)-3-(5-nitrofuran-2yl)prop-2-en-1-one], the “Expansion of CCM1^-/- BOECs in co-culture” value [1] was “significantly blocked the expansion of CCM1^-/- BOECs”, the “EC morphology / endothelial phenotype” value (CI-huVECs) was “minimal effects on EC morphology” and the “Expression of CDKN1A (p21), FC (fold change NSC59984 vs. DMSO treatment)” value (CCM3^-/- CI-huVECs [2]) was 2.33. The “Expression of GADD45A, FC (fold change NSC59984 vs. DMSO treatment)” value (CCM3^-/- CI-huVECs [2]) was 2.11, the “Expression of apoptosis-related p53 target genes BBC3 (PUMA) or PMAIP1 (Noxa)” value (CCM3^-/- CI-huVECs [2]) was “unaffected” and the “Proliferation rate of wild-type ECs” value (CCM3^+/+ CI-huVECs; 10 µM) was 295%. For the same compound, the “Proliferation rate of wild-type ECs” value (CCM3^+/+ CI-huVECs; starting value of the decrease, concentration not printed (by parallel 1 µM)) was 761%, the “Mutant EC expansion at high spike-in ratios” value ([3]; 10 µM (Fig. 20)) was “blocked mutant EC expansion even at high spike-in ratios but did not decrease mutant allele frequencies” and the “Clonal expansion of mutant ECs after end of treatment” value ([3]; 10 µM for six days, then seven additional days without treatment (Fig. 21)) was “still efficiently blocked after the end of NSC59984 treatment”. For the same compound, the Knockout allele frequencies ([3]; 10 µM of each compound, six days, added 5 h and 3 days after seeding, DMSO-treated co-culture controls 33.5 %) was 10.2%, the “Mutant EC expansion after pretreatment of CCM3^-/- CI-huVECs before co-culture” value ([3]; 6 days co-culture without additional treatment (Fig. 22)) was “completely prevented mutant EC expansion” and the “Clonal expansion of CCM3^-/- CI-huVECs in co-culture” value ([3]; different concentrations (Fig. 18)) was “blocked the clonal expansion of CCM3^-/- CI-huVECs in a concentration-dependent manner”. The “Cells in G0/G1 (G0/G1 arrest)” value (CCM3^-/- CI-huVECs [4]) was 87.7%.

From patent publication EP4144350B1, “TREATMENT OR PREVENTION OF VASCULAR MALFORMATION” (Universitätsmedizin Greifswald, priority 2021, dated 2023)
